Experimental data reported in US20220339150A1, “ENDOCANNABINOID SYSTEM-TARGETING PRODRUGS AND THERAPEUTIC USES THEREOF” (priority 2021, published 2022).
“Also recorded” adds a separate entry of the source. Read-outs that look alike come from different tables or passages of the source.

Assays:
[1] = Stability in aqueous solutions (sodium phosphate buffer, 37° C.); format: physicochemical; conditions: for half-life: buffer, read-out: Half-life in aqueous solution (converted)
Method: […] The solutions of prodrugs were prepared by adding 10 μL of stock solution (10 mg/mL in DMSO) to the preheated buffer. The solutions were stirred at a constant temperature of 37° C. At appropriate intervals, 75 μL of samples were mixed with 75 μL of MeOH and analyzed for remaining prodrug by HPLC.
The pseudo-first-order rate constants (kobs) and half-lives (t1/2) for the degradation of the prodrugs were determined from the linear slopes of the plots by taking the logarithm of the remaining prodrug over time. Equations: kobs=slope/−2.303 and t1/2=ln2/kobs.

[2] = Stability in 80% human plasma (serum); format: in vitro ADME; conditions: 80% human serum (pH 7.4) at 37° C.
Method: The rates of the degradation of the prodrugs were determined in 80% human serum (pH 7.4) at 37° C. as an indication of the susceptibility of prodrugs to undergo bioconversion after reaching the circulation. The reactions were initiated by adding the first 10 μL of the prodrug stock solution (10 mg/mL in DMSO) to 200 μL preheated sodium phosphate buffer solution (50 mM, pH 7.4, ionic strength 0.5), and then adding 800 μL preheated human serum. The solutions were stirred at a constant temperature of 37° C. At appropriate intervals, 50 μL of samples were mixed with 150 μL of ice-cold MeOH. After immediate mixing and centrifugation (5 min at 14.000 rpm), the resulting clear supernatant was analyzed for the remaining prodrug by HPLC.

[3] = Metabolic stability in human liver microsomes; format: in vitro ADME; conditions: for half-life at 15 µg/mL / half-life: both sexes, human, microsomes
Method: The prodrugs were incubated with the human liver microsomes at 37° C. as an indication of the susceptibility of prodrugs to undergo bioconversion in the liver. The reactions were initiated by adding 1.5 μL of the prodrug stock solution (10 mg/mL in DMSO) to a preheated solution consisting of 748.5 μL potassium phosphate buffer solution (20 mM, pH 7.4, ionic strength 0.5), 200 μL NADPH, and 50 μLhuman liver microsomes (mixed gender, 0.5 ml at 20 mg/mL). The solutions were stirred at a constant temperature of 37° C. At appropriate intervals, 50 μLof samples were mixed with 100 μL of ice-cold MeOH. After immediate mixing and centrifugation (5 min at 14.000 rpm), the resulting clear supernatant was analyzed for the remaining prodrug by HPLC.

[4] = system: reconstructed human oral buccal epithelium cells (SkinEthic HOE, TR146 cells); assay: In vitro buccal permeability (SkinEthic human oral epithelium); format: in vitro ADME; conditions: for Buccal permeation compared with parent cannabinoid (in words): 5% ethanol suspension; for Species making up the buccal flux / formation of parent cannabinoid / Flux (buccal) / Flux compared with parent cannabinoid: Table 4; for Flux (buccal): suspension ca. 2 mg/ml in 5% EtOH/phosphate buffer pH 6.8, 37° C., receiver 15% HP-β-cyclodextrin; for Flux compared with parent cannabinoid: buccal flux relative to parent
Method: (§1) The in vitro permeability studies were carried out in commercial reconstructed human oral buccal epithelium cells (SkinEthic™ human oral epithelium). The SkinEthic™ HOE model is composed of TR146 cells (derived from a squamous cell carcinoma of the buccal mucosa) cultivated on an inert polycarbonate filter at the air-liquid interface in a chemically defined medium. This model forms an epithelial tissue devoid of stratum corneum, resembling histologically to the mucosa of the oral cavity.
Upon receiving the cells, each insert (0.5 cm^2 or 0.33 cm^2) was placed in a plate containing 800 μL fresh medium at room temperature. The culture dishes were placed in the incubator at 37° C., 5% CO2, and saturated humidity overnight. Next day, the inserts were placed in a plate containing 800 μL 15% HP-β-cyclodextrin in H2O. The prodrugs were dissolved in 100% EtOH (5% (V/V) final conc.), and then sodium phosphate buffer solution (50 mM, pH 6.8, isotonic, 37° C.) was added (95% (V/V) final conc.). 400 μL of the prodrugs were applied as suspensions (ca. 2 mg/ml). The plates were stirred gently at 37° C. At appropriate intervals, the receptor compartment was sampled (100 μL) and replenished with fresh […] solution each time. The samples were mixed with 100 μL of MeOH, and analyzed for drug (both the parent cannabinoid and the prodrug) by HPLC-MS.
The buccal flux-values for the rate of delivery of drugs were determined from Fick's law of diffusion.

[5] = system: reconstructed human epidermis cells; assay: In vitro skin permeability (SkinEthic Episkin reconstructed human epidermis); format: in vitro ADME; conditions: for Skin permeation, applied compound (parent or intact prodrug): receiver 15% HP-beta-CD pH 7.4
Method: as §1, with “epidermis” for “oral buccal epithelium”, “(SkinEthic™ Episkin Reconstructed” for “(SkinEthic™”, “epidermis). This” for “oral epithelium). The SkinEthic™ HOE”
Upon receiving the cells, each insert (0.5 cm^2 or 0.33 cm^2) was placed in a plate containing 800 μL fresh medium at room temperature. The culture dishes were placed in the incubator at 37° C., 5% CO2, and saturated humidity overnight. Next day, the inserts were placed in a plate containing 800 μL 15% HP-β-cyclodextrin in H2O. CBD and CBG, and prodrugs CBDp27 and CBGp1 were dissolved in two different vehicles, 1:1:1 prop gly:water:EtOH/6% Brij 98, and 100% mineral oil. The receiver solution was 15% HP-beta-CD in phosphate buffer (pH 7.4). 400 μL the prodrugs were applied as suspensions (ca. 2 mg/ml). The plates were stirred gently at 37° C. At appropriate intervals, the receptor compartment was sampled (100 μL) and replenished with fresh […] solution each time. The samples were mixed with 100 μL of MeOH, and analyzed for drug (both the parent drug and prodrug) by HPLC-MS.
The flux-values for the rate of delivery of drugs were determined from Fick's law of diffusion.

[6] = vehicle solvent mix (1:1:1 prop gly:water:EtOH/6% Brij 98)
[7] = Table 5, aqueous buffer pH 6.8, 37° C., single determinations
[8] = pH 6.8, Table 5, aqueous buffer pH 6.8, 37° C., single determinations
[9] = pH 7.4, Table 5, 37° C., NADPH, read-out: Half-life in human liver microsomes (single determinations) (converted)
[10] = pH 7.4, Table 5, average of determinations, read-out: Half-life in human liver microsomes (avg.) (converted)

Row | SMILES | Buccal permeation compared with parent cannabinoid (in words) [4] | Skin permeation of prodrug relative to parent cannabinoid ([5]; mineral oil) [fold] | Skin permeation of prodrug relative to parent cannabinoid ([5]; solvent mix) [fold] | Skin permeation, applied compound (parent or intact prodrug) ([5]; vehicle mineral oil) [nmol/cm^2/h] | Skin permeation, applied compound (parent or intact prodrug) [5, 6] [nmol/cm^2/h] | Half-life in aqueous solution [1, 7] [min] | half-life [1, 8] [min] | Half-life in serum ([2]; Table 5) | Half-life in human liver microsomes (single determinations) ([3]; Table 5, 37° C., NADPH) [min] | half-life [3, 9] [min] | half-life [3, 10] [min] | Species making up the buccal flux / formation of parent cannabinoid ([4]; remark in flux cell) | Flux (buccal) [4] | half-life at 15 µg/mL [3, 10] [min] | Flux compared with parent cannabinoid [4] | other results
1 | C=C(C)[C@@H]1CCC(C)=C[C@H]1c1c(O)cc(CCCCC)cc1OC(=O)NCCN(C)C [CBDp27, (1′R,2′R)-6-hydroxy-5′-methyl-4-pentyl-2′-(prop-1-en-2-yl)-1′,2′,3′,4′-tetrahydro-[1,1′-biphenyl]-2-yl (2-(dimethylamino)ethyl)carbamate] | better than that of CBD; also recorded: superior when compared to CBD and other prodrugs | ~140 | ~40 | 3.28 ± 0.15 | 47.42 ± 5.23 |  |  |  |  |  |  |  |  |  |  | Half-life in aqueous solution ([1]; Table 3, aqueous buffer pH 6.8, 37° C.): 10.2 min; Half-life in aqueous solution ([1]; Table 3, pH 3): (pH 3 = stable,; Half-life in aqueous solution ([1]; Table 3, pH 4): pH 4 = stable,; Half-life in aqueous solution ([1]; Table 3, pH 5): pH 5 = stable,; half-life ([1]; pH 6.8, Table 3, aqueous buffer pH 6.8, 37° C.): 8.4 min; half-life ([1]; pH 7.4, Table 3, pH 7.4): 52.2 min; half-life ([1]; pH 8, Table 3, pH 8): 65.4 min; half-life ([1]; pH 9, Table 3, pH 9): 98.4 min; Half-life in serum ([2]; Table 3): stable; Half-life in human liver microsomes (single determinations) ([3]; Table 3, 37° C., NADPH): 3.13; 3.13 h; half-life at 15 µg/mL ([3]; pH 7.4, Table 3, 37° C., NADPH, read-out: Half-life in human liver microsomes (single determinations) (converted)): 188 min; half-life at 15 µg/mL ([3]; pH 7.4, Table 3, average of determinations, read-out: Half-life in human liver microsomes (avg.) (converted)): 188 min; Species making up the buccal flux (parent vs intact prodrug) ([4]; Table 2, remark in flux cell): CBD + prodrug
2 | CCCCCc1cc(O)c(C/C=C(\C)CCC=C(C)C)c(OC(=O)C2CCNC2)c1 (centres unmarked) [CBGp1, (E)-2-(3,7-dimethylocta-2,6-dien-1-yl)-3-hydroxy-5-pentylphenyl pyrrolidine-3-carboxylate] |  | ~13 | > 300 | 0.54 ± 0.19 | 148.0 ± 40.9 | 32.4 | 30 | 44.4 min | 40.2 | 38.4 | 39.6 | (CBG + prodrug) | 111.79 ± 2.59 nmol/cm^2/h |  |  | half-life ([2]; human, serum, pH 7.4, Table 5): 42 min
3 | CCCCCc1cc(OC(=O)N2CCN(C)CC2)c(C/C=C(\C)CCC=C(C)C)c(OC(=O)N2CCN(C)CC2)c1 [CBGp3, (E)-2-(3,7-dimethylocta-2,6-dien-1-yl)-5-pentyl-1,3-phenylene bis(4-methylpiperazine-1-carboxylate)] |  |  |  |  |  | 22.8 | 16.8 | No degradation |  |  |  | NO significant formation of CBGp2 or | 30.60 ± 2.02 (prodrug) nmol/cm^2/h | 114 | 2.6-times better | Flux compared with parent cannabinoid ([4]; listed as bis-methylpiperazine carbamate prodrug of CBG): 2.6 times
4 | CCCCCc1cc(O)c(C/C=C(\C)CCC=C(C)C)c(OC(=O)N2CCNCC2)c1 [CBGp5, (E)-2-(3,7-dimethylocta-2,6-dien-1-yl)-3-hydroxy-5-pentylphenyl piperazine-1-carboxylate] |  |  |  |  |  | 15.6 | 22.8 | No degradation | 107 |  |  | NO significant formation of CBG | 10.31 ± 0.54 (prodrug) nmol/cm^2/h | 92.4 | No improvement | half-life at 15 µg/mL [3, 9]: 77.4 min
5 | CCCCCc1cc(OC(=O)N2CCN(C)CC2)c2c(c1)OC(C)(C)[C@@H]1CCC(C)=C[C@@H]21 [THCp1, (6aR,10aR)-6,6,9-trimethyl-3-pentyl-6a,7,8,10a-tetrahydro-6H-benzo[c]chromen-1-yl 4-methylpiperazine-1-carboxylate] |  |  |  |  |  | 24.6 | 39.6 | No degradation | 301 | 158 | 230 | NO significant formation of THC | 19.22 ± 0.29 (prodrug) nmol/cm^2/h |  | No improvement | 
6 | CCCCCc1cc(OC(=O)N2CCNCC2)c2c(c1)OC(C)(C)[C@@H]1CCC(C)=C[C@@H]21 [THCp3, (6aR,10aR)-6,6,9-trimethyl-3-pentyl-6a,7,8,10a-tetrahydro-6H-benzo[c]chromen-1-yl piperazine-1-carboxylate] | slightly better than THC |  |  |  |  | 64.2 | 45.6 | No degradation |  |  | 219 | NO significant formation of THC | 31.30 ± 1.31 (prodrug) nmol/cm^2/h |  | 1.6-times better | 
